In patent US9993494B2, “Compositions and methods for treating fibrotic disease” (eFFECTOR Therapeutics, Inc., priority 2014, dated 2018):

Test system: normal human lung fibroblasts
Experiment: Ribosomal profiling: translational efficiency in TGFβ-treated fibroblasts
Type: cell-based
Outline: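 Genome-wide RPF and total RNA libraries (ARTseq, RNA-Seq) were made from lysates of cycloheximide-treated, PBS-washed cells. After trimming and human-genome mapping, per-gene coding-region counts were compared between RPF and RNA for translational efficiency. Genes scoring low in either fraction were dropped.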

TGFβ was tested, and the “Log2 TE KIAA0408” value (ENSG00000189367, 5 replicates) was −1.283, the “Log2 TE ZBTB44” value (ENSG00000196323, 5 replicates) was −1.222 and the “Log2 TE NACA” value (ENSG00000196531, 5 replicates) was 1.083. For the same substance, the “change in translational profile of NACA caused by TGFβ” value (ENSG00000196531, Control vs. TGFβ) was “E (E = <1.5 to 2.5)”, the “Log2 TE ADH1B” value (ENSG00000196616, 5 replicates) was −2.795 and the “Log2 TE TOMM7” value (ENSG00000196683, 5 replicates) was 1.126. For the same substance, the “change in translational profile of LAMB3 caused by TGFβ” value (ENSG00000196878, Control vs. TGFβ) was “D (D = <1.0 to 1.5)”, the “Log2 TE PCBP2” value (ENSG00000197111, 5 replicates) was 1.293 and the “change in translational profile of PCBP2 caused by TGFβ” value (ENSG00000197111, Control vs. TGFβ) was “E (E = <1.5 to 2.5)”. The “Log2 TE MAP3K5” value (ENSG00000197442, 5 replicates) was −2.0153, the “change in translational profile of MAP3K5 caused by TGFβ” value (ENSG00000197442, Control vs. TGFβ) was “B (B = <−1.5 to −2.5)” and the “Log2 TE RPS26” value (ENSG00000197728, 5 replicates) was 1.09. For the same substance, the “Log2 TE RPL37A” value (ENSG00000197756, 5 replicates) was 2.029, the “change in translational profile of RPL37A caused by TGFβ” value (ENSG00000197756, Control vs. TGFβ) was “E (E = <1.5 to 2.5)” and the “Log2 TE RPL12” value (ENSG00000197958, 5 replicates) was 1.878. The “change in translational profile of RPL12 caused by TGFβ” value (ENSG00000197958, Control vs. TGFβ) was “E (E = <1.5 to 2.5)”, the “Log2 TE DNM3” value (ENSG00000197959, 5 replicates) was −1.161 and the “Log2 TE RPS4X” value (ENSG00000198034, 5 replicates) was 1.534. For the same substance, the “Log2 TE LPAR1” value (ENSG00000198121, 5 replicates) was −1.448, the “change in translational profile of LPAR1 caused by TGFβ” value (ENSG00000198121, Control vs. TGFβ) was “C (C = <−1.0 to −1.5)” and the “Log2 TE ZNF607” value (ENSG00000198182, 5 replicates) was −1.108. The “Log2 TE RPL23A” value (ENSG00000198242, 5 replicates) was 1.395, the “change in translational profile of RPL23A caused by TGFβ” value (ENSG00000198242, Control vs. TGFβ) was “E (E = <1.5 to 2.5)” and the “Log2 TE TPM2” value (ENSG00000198467, 5 replicates) was 1.077. For the same substance, the “change in translational profile of PLN caused by TGFβ” value (ENSG00000198523, Control vs. TGFβ) was “F (F = >2.5)”, the “Log2 TE RPL10A” value (ENSG00000198755, 5 replicates) was 1.51 and the “change in translational profile of RPL10A caused by TGFβ” value (ENSG00000198755, Control vs. TGFβ) was “E (E = <1.5 to 2.5)”. For the same substance, the “Log2 TE CES1” value (ENSG00000198848, 5 replicates) was 1.084, the “change in translational profile of CES1 caused by TGFβ” value (ENSG00000198848, Control vs. TGFβ) was “E (E = <1.5 to 2.5)” and the “Log2 TE RPL39” value (ENSG00000198918, 5 replicates) was 1.536. For the same substance, the “change in translational profile of RPL39 caused by TGFβ” value (ENSG00000198918, Control vs. TGFβ) was “E (E = <1.5 to 2.5)”, the “Log2 TE GPRASP1” value (ENSG00000198932, 5 replicates) was −1.239 and the “Log2 TE RORB” value (ENSG00000198963, 5 replicates) was −1.766. For the same substance, the “Log2 TE CARD16” value (ENSG00000204397, 5 replicates) was −1.076, the “change in translational profile of CARD16 caused by TGFβ” value (ENSG00000204397, Control vs. TGFβ) was “B (B = <−1.5 to −2.5)” and the “Log2 TE MICA” value (ENSG00000204520, 5 replicates) was 1.143. For the same substance, the “change in translational profile of MICA caused by TGFβ” value (ENSG00000204520, Control vs. TGFβ) was “E (E = <1.5 to 2.5)”, the “Log2 TE GNB2L1” value (ENSG00000204628, 5 replicates) was 1.732 and the “change in translational profile of GNB2L1 caused by TGFβ” value (ENSG00000204628, Control vs. TGFβ) was “E (E = <1.5 to 2.5)”. The “Log2 TE RPS29” value (ENSG00000213741, 5 replicates) was 1.571, the “Log2 TE RPL17” value (ENSG00000215472, 5 replicates) was 1.299 and the “change in translational profile of RPL17 caused by TGFβ” value (ENSG00000215472, Control vs. TGFβ) was “E (E = <1.5 to 2.5)”. The “Log2 TE UBA52” value (ENSG00000221983, 5 replicates) was 1.125, the “Log2 TE BTBD19” value (ENSG00000222009, 5 replicates) was 1.524 and the “Log2 TE RPL41” value (ENSG00000229117, 5 replicates) was 1.474. The “change in translational profile of RPL41 caused by TGFβ” value (ENSG00000229117, Control vs. TGFβ) was “E (E = <1.5 to 2.5)”, the “Log2 TE RPS18” value (ENSG00000231500, 5 replicates) was 2.003 and the “Log2 TE C17orf108” value (ENSG00000232859, 5 replicates) was −1.329. The “Log2 TE RPS28” value (ENSG00000233927, 5 replicates) was 1.937, the “Log2 TE ARPC1A” value (ENSG00000241685, 5 replicates) was 1.288 and the “change in translational profile of ARPC1A caused by TGFβ” value (ENSG00000241685, Control vs. TGFβ) was “D (D = <1.0 to 1.5)”. For the same substance, the “Log2 TE IFITM10” value (ENSG00000244242, 5 replicates) was −1.299, the “Log2 TE FMN1” value (ENSG00000248905, 5 replicates) was −1.906 and the “Log2 TE CHCHD10” value (ENSG00000250479, 5 replicates) was 2.519. The “change in translational profile of CHCHD10 caused by TGFβ” value (ENSG00000250479, Control vs. TGFβ) was “F (F = >2.5)”, the “Log2 TE SEPP1” value (ENSG00000250722, 5 replicates) was −1.035 and the “Log2 TE EEF1G” value (ENSG00000254772, 5 replicates) was 1.551. For the same substance, the “change in translational profile of EEF1G caused by TGFβ” value (ENSG00000254772, Control vs. TGFβ) was “E (E = <1.5 to 2.5)” and the “Log2 TE TEN1” value (ENSG00000257949, 5 replicates) was 1.361.
